Experiments:
[1] = target: T1, human vasopressin V2 receptor subtype (Homo sapiens, UniProt P30518); test: Vasopressin binding in CHO cell membranes expressing human vasopressin V2 subtype receptors ([3H]arginine vasopressin radioligand binding); conditions: for IC50: value in parentheses; for inhibition at 0.1 µM: 100 nM
T1 construct: host or cells: CHO cells, stably transfected (pZeoSV vector)
Summary of the method: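 Values are IC50 in nM or percent inhibition at a stated concentration, from scintillation counts after filtration. Binding ran 60 min at room temperature: [3H]arginine vasopressin, human V2-transfected CHO membranes (25 to 50 μg protein/well), pH 7.4 Tris-HCl buffer containing MgCl2, BSA, protease inhibitors.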

T1 sequence (P30518 whole entry): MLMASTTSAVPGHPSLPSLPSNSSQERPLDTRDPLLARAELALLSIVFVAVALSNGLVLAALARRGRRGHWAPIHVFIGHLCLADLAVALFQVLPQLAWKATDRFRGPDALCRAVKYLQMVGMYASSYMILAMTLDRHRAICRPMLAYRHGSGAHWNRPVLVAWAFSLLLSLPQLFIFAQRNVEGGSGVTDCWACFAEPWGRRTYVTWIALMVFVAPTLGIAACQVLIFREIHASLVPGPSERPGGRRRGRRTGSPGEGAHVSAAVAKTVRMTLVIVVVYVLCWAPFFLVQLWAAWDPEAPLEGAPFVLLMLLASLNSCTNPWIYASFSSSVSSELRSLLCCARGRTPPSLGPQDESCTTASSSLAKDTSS

SMILES | IC50 [1] [nM] | melting point | inhibition at 0.1 µM [1] [%]
COc1cc(-c2ccccc2C(F)(F)F)c(Cl)cc1C(=O)N1Cc2ccc(C(=O)N(C)Cc3cccnc3)n2Cc2ccccc21 [Example 5, 10-{[6-Chloro-3-methoxy-2′-trifluoromethyl-[1,1′-biphenyl]-4-yl]carbonyl}-N-methyl-N-(pyridin-3-ylmethyl)-10,11-dihydro-5H-pyrrolo[2,1-c][1,4]benzodiazepine-3-carboxamide] | 433 | 124 to 126 °C | –
COc1cc(-c2ccccc2Cl)c(Cl)cc1C(=O)N1Cc2ccc(C(=O)N(C)Cc3cccnc3)n2Cc2ccccc21 [Example 6, 10-[(2′,6-Dichloro-3-methoxy-[1,1′-biphenyl]-4-yl)carbonyl]-N-methyl-N-(pyridin-3-ylmethyl)-10,11-dihydro-5H-pyrrolo[2,1-c][1,4]benzodiazepine-3-carboxamide] | 309 | 196 to 198 °C | –
COc1cc(C(=O)N2Cc3ccc(C(=O)N(C)Cc4ccc[n+]([O-])c4)n3Cc3ccccc32)ccc1-c1ccccc1C(F)(F)F [Example 8, 10-{[2-Methoxy-2′-trifluoromethyl-[1,1′-biphenyl]-4-yl]carbonyl}-N-methyl-N-(1-oxo-pyridin-3-ylmethyl)-10,11-dihydro-5H-pyrrolo[2,1-c][1,4]benzodiazepine-3-carboxamide] | 237 | 165 to 170 °C (dec.) | –
COc1cccc(-c2ccc(C(=O)N3Cc4ccc(C(=O)N5CCN(c6ccccn6)CC5)n4Cc4ccccc43)cc2OC)c1 [Example 85, {10-[(2,3′-Dimethoxy-[1,1′-biphenyl]-4-yl)carbonyl]-10,11-dihydro-5H-pyrrolo[2,1-c][1,4]benzodiazepin-3-yl}[4-(2-pyridinyl)-1-piperazinyl]methanone] | – | – | 5
O=C(c1ccc2n1Cc1ccccc1N(C(=O)c1ccc(-c3cccc4ccccc34)cc1Cl)C2)N1CCN(c2ccccn2)CC1 [Example 86, {10-[2-Chloro-4-(naphthalen-1-yl)benzoyl]-10,11-dihydro-5H-pyrrolo[2,1-c][1,4]benzodiazepin-3-yl}[4-(2-pyridinyl)-1-piperazinyl]methanone] | – | – | 11
Cc1cc(C(=O)N2Cc3ccc(C(=O)N4CCN(c5ccccn5)CC4)n3Cc3ccccc32)ccc1-c1ccccc1C(F)(F)F [Example 87, (10-{[2-Methyl-2′-trifluoromethyl-[1,1′-biphenyl]-4-yl]carbonyl}-10,11-dihydro-5H-pyrrolo[2,1-c][1,4]benzodiazepin-3-yl)[4-(2-pyridinyl)-1-piperazinyl]methanone] | – | – | 4
COc1ccccc1-c1ccc(C(=O)N2Cc3ccc(C(=O)NCc4ccncc4)n3Cc3ccccc32)cc1C [Example 88, 10-[(2′-Methoxy-2-methyl-[1,1′-biphenyl]-4-yl)carbonyl]-N-(4-pyridinylmethyl)-10,11-dihydro-5H-pyrrolo[2,1-c][1,4]benzodiazepine-3-carboxamide] | – | – | 13
Cc1ccccc1-c1ccc(C(=O)N2Cc3ccc(C(=O)NCc4ccncc4)n3Cc3ccccc32)cc1C [Example 89, 10-[(2,2′-Dimethyl-[1,1′-biphenyl]-4-yl)carbonyl]-N-(4-pyridinylmethyl)-10,11-dihydro-5H-pyrrolo[2,1-c][1,4]benzodiazepine-3-carboxamide] | – | – | 15
COc1cccc(-c2ccc(C(=O)N3Cc4ccc(C(=O)NCc5ccncc5)n4Cc4ccccc43)cc2C)c1 [Example 90, 10-[(3′-Methoxy-2-methyl-[1,1′-biphenyl]-4-yl)carbonyl]-N-(4-pyridinylmethyl)-10,11-dihydro-5H-pyrrolo[2,1-c][1,4]benzodiazepine-3-carboxamide] | – | – | 11
COc1ccccc1-c1ccc(C(=O)N2Cc3ccc(C(=O)NCc4ccncc4)n3Cc3ccccc32)cc1 [Example 91, 10-[(2′-Methoxy-[1,1′-biphenyl]-4-yl)carbonyl]-N-(4-pyridinylmethyl)-10,11-dihydro-5H-pyrrolo[2,1-c][1,4]benzodiazepine-3-carboxamide] | – | – | 10
Cc1ccccc1-c1ccc(C(=O)N2Cc3ccc(C(=O)NCc4ccncc4)n3Cc3ccccc32)cc1 [Example 92, 10-[(2′-Methyl-[1,1′-biphenyl]-4-yl)carbonyl]-N-(4-pyridinylmethyl)-10,11-dihydro-5H-pyrrolo[2,1-c][1,4]benzodiazepine-3-carboxamide] | – | – | 0
COc1cc(C(=O)N2Cc3ccc(C(=O)NCc4ccncc4)n3Cc3ccccc32)ccc1-c1ccccc1C [Example 93, 10-[(2-Methoxy-2′-methyl-[1,1′-biphenyl]-4-yl)carbonyl]-N-(4-pyridinylmethyl)-10,11-dihydro-5H-pyrrolo[2,1-c][1,4]benzodiazepine-3-carboxamide] | – | – | 27
COc1cc(-c2ccccc2C)c(Cl)cc1C(=O)N1Cc2ccc(C(=O)NCc3ccncc3)n2Cc2ccccc21 [Example 94, 10-[(6-Chloro-3-methoxy-2′-methyl-[1,1′-biphenyl]-4-yl)carbonyl]-N-(4-pyridinylmethyl)-10,11-dihydro-5H-pyrrolo[2,1-c][1,4]benzodiazepine-3-carboxamide] | – | – | 5
COc1cccc(-c2cc(OC)c(C(=O)N3Cc4ccc(C(=O)NCc5ccncc5)n4Cc4ccccc43)cc2Cl)c1 [Example 95, 10-[(6-Chloro-3,3′-dimethoxy-[1,1′-biphenyl]-4-yl)carbonyl]-N-(4-pyridinylmethyl)-10,11-dihydro-5H-pyrrolo[2,1-c][1,4]benzodiazepine-3-carboxamide] | – | – | -1
COc1cc(C(=O)N2Cc3ccc(C(=O)NCc4ccncc4)n3Cc3ccccc32)ccc1-c1cccc2ccccc12 [Example 96, 10-[3-Methoxy-4-(naphthalen-1-yl)benzoyl]-N-(4-pyridinylmethyl)-10,11-dihydro-5H-pyrrolo[2,1-c][1,4]benzodiazepine-3-carboxamide] | – | – | 22
COc1ccccc1-c1ccc(C(=O)N2Cc3ccc(C(=O)NCc4ccncc4)n3Cc3ccccc32)cc1OC [Example 97, 10-[(2,2′-Dimethoxy-[1,1′-biphenyl]-4-yl)carbonyl]-N-(4-pyridinylmethyl)-10,11-dihydro-5H-pyrrolo[2,1-c][1,4]benzodiazepine-3-carboxamide] | – | – | 16
O=C(NCc1ccncc1)c1ccc2n1Cc1ccccc1N(C(=O)c1ccc(-c3cccc4ccccc34)cc1Cl)C2 [Example 99, 10-[2-Chloro-4-(naphthalen-1-yl)benzoyl]-N-(4-pyridinylmethyl)-10,11-dihydro-5H-pyrrolo[2,1-c][1,4]benzodiazepine-3-carboxamide] | – | – | 12
Cc1cc(C(=O)N2Cc3ccc(C(=O)NCc4ccncc4)n3Cc3ccccc32)ccc1-c1ccccc1C(F)(F)F [Example 100, 10-{[2-Methyl-2′-trifluoromethyl-[1,1′-biphenyl]-4-yl]carbonyl}-N-(4-pyridinylmethyl)-10,11-dihydro-5H-pyrrolo[2,1-c][1,4]benzodiazepine-3-carboxamide] | – | – | 0
COc1ccccc1-c1ccc(C(=O)N2Cc3ccc(C(=O)N(C)Cc4cccnc4)n3Cc3ccccc32)cc1C [Example 101, 10-[(2′-Methoxy-2-methyl-[1,1′-biphenyl]-4-yl)carbonyl]-N-methyl-N-(3-pyridinylmethyl)-10,11-dihydro-5H-pyrrolo[2,1-c][1,4]benzodiazepine-3-carboxamide] | 270 | – | –
COc1cccc(-c2ccc(C(=O)N3Cc4ccc(C(=O)N(C)Cc5cccnc5)n4Cc4ccccc43)cc2C)c1 [Example 102, 10-[(3′-Methoxy-2-methyl-[1,1′-biphenyl]4-yl)carbonyl]-N-methyl-N-(3-pyridinyImethyl)-10,11-dihydro-5H-pyrrolo[2,1-c][1,4]benzodiazepine-3-carboxamide] | 534 | – | –
COc1ccccc1-c1ccc(C(=O)N2Cc3ccc(C(=O)N(C)Cc4cccnc4)n3Cc3ccccc32)cc1OC [Example 103, 10-[(2,2′-Dimethoxy-[1,1′-biphenyl]-4-yl)carbonyl]-N-methyl-N-(3-pyridinylmethyl)-10,11-dihydro-5H-pyrrolo[2,1-c][1,4]benzodiazepine-3-carboxamide] | 318 | – | –
COc1ccccc1-c1ccc(C(=O)N2Cc3ccc(C(=O)N(C)Cc4cccnc4)n3Cc3ccccc32)cc1 [Example 104, 10-[(2′-Methoxy-[1,1′-biphenyl]-4-yl)carbonyl]-N-methyl-N-(3-pyridinylmethyl)-10,11-dihydro-5H-pyrrolo[2,1-c][1,4]benzodiazepine-3-carboxamide] | – | – | 23
Cc1ccccc1-c1ccc(C(=O)N2Cc3ccc(C(=O)N(C)Cc4cccnc4)n3Cc3ccccc32)cc1 [Example 105, N-Methyl-10-[(2′-methyl-[1,1′-biphenyl]-4-yl)carbonyl]-N-(3-pyridinylmethyl)-10,11-dihydro-5H-pyrrolo[2,1-c][1,4]benzodiazepine-3-carboxamide] | – | – | 6
Cc1cc(C(=O)N2Cc3ccc(C(=O)N(C)Cc4cccnc4)n3Cc3ccccc32)ccc1-c1ccccc1C(F)(F)F [Example 112, N-Methyl-10-{[2-methyl-2′-trifluoromethyl-[1,1′-biphenyl]-4-yl]carbonyl}-N-(3-pyridinylmethyl)-10,11-dihydro-5H-pyrrolo[2,1-c][1,4]benzodiazepine-3-carboxamide] | 1130 | – | –
COc1ccccc1-c1ccc(C(=O)N2Cc3ccc(C(=O)N4CCN(c5ccncc5)CC4)n3Cc3ccccc32)cc1C [Example 113, {10-[(2′-Methoxy-2-methyl-[1,1′-biphenyl]-4-yl)carbonyl]-10,11-dihydro-5H-pyrrolo[2,1-c][1,4]benzodiazepin-3-yl}[4-(4-pyridinyl)-1-piperazinyl]methanone] | 545 | – | –

From patent US7064120B2, “Tricyclic pyridyl carboxamides and derivatives thereof tocolytic oxytocin receptor antagonists” (Wyeth, priority 2001, dated 2006)
